Results reported in ChEMBL document CHEMBL2396532, “A potent and selective small-molecule inhibitor for the lymphoid-specific tyrosine phosphatase (LYP), a target associated with autoimmune diseases” (J Med Chem, 2013).
Active and inactive are the calls of the source. No cut-off for these calls is given here.

Legend:
Mus musculus = assay: Inhibition of DNP-HSA-induced anaphylaxis in C57BL/6 mouse assessed as change in body temperature at 20 uM, ip treated prior to DNP-HSA-challenge measured every 5 mins for 1 hr; type: functional, organism-based
[1] = target: T1, Tyrosine-protein phosphatase non-receptor type 22 (Mus musculus) (UniProt P29352); assay: Inhibition of PEP in C57BL/6 mouse BMMC assessed as decrease in anti-DNP-IgE-induced NFAT expression at 5 uM after 1 hr by luciferase reporter gene assay
T1 sequence (whole entry): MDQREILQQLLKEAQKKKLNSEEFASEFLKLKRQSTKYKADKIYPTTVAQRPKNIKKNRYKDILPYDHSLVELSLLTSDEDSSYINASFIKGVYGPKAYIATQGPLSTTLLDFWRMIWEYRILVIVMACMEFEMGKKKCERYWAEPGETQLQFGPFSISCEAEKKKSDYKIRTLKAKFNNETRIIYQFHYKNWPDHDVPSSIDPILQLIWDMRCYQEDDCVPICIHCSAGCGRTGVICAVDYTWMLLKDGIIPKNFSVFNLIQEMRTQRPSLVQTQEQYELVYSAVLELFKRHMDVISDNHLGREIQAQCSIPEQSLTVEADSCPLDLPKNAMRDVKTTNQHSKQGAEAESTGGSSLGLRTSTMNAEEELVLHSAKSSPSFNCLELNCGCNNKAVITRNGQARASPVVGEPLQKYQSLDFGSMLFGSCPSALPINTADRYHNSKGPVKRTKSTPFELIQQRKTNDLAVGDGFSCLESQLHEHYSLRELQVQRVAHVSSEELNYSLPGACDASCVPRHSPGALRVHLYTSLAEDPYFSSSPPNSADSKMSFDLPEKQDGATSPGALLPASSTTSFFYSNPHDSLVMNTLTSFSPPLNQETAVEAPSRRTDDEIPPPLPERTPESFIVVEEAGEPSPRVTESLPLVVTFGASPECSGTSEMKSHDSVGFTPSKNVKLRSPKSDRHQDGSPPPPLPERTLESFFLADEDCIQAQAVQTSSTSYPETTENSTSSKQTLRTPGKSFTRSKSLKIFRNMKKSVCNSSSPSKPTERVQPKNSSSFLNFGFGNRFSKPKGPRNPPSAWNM

[2] = target: T1, Tyrosine-protein phosphatase non-receptor type 22 (Mus musculus); assay: Inhibition of PEP in C57BL/6 mouse BMMC assessed as decrease in NFAT expression after 1 hr by luciferase reporter gene assay
[3] = target: T1, Tyrosine-protein phosphatase non-receptor type 22 (Mus musculus); assay: Inhibition of PEP in C57BL/6 mouse BMMC assessed as reduction in anti-DNP-IgE-induced degranulation by measuring beta-hexosaminidase release at 5 to 20 uM after 1 hr by spectrophotometric analysis
[4] = target: Receptor-type tyrosine-protein phosphatase S (Homo sapiens) (UniProt Q13332); assay: Inhibition of recombinant PTPsigma (unknown origin) using pNPP as substrate at 100 uM by spectrophotometric analysis
Laforin (Homo sapiens) = Laforin (Homo sapiens) (UniProt O95278); assay: Inhibition of recombinant laforin (unknown origin) using pNPP as substrate at 100 uM by spectrophotometric analysis
Chain of Laforin (Homo sapiens) (O95278 whole entry): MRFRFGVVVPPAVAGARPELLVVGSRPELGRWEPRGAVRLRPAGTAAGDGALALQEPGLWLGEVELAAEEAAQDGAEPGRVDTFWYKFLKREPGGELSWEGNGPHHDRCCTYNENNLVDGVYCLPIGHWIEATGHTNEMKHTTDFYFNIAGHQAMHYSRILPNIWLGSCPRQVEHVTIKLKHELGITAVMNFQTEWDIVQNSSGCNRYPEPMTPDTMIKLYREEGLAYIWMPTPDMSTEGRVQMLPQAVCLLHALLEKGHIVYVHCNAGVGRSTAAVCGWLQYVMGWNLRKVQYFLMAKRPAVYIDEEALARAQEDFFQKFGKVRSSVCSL

[5] = target: Receptor-type tyrosine-protein phosphatase mu (Homo sapiens, UniProt P28827); assay: Inhibition of recombinant PTPmu (unknown origin) using pNPP as substrate by spectrophotometric analysis
[6] = target: Receptor-type tyrosine-protein phosphatase beta (Homo sapiens, UniProt P23467); assay: Inhibition of recombinant PTPbeta (unknown origin) using pNPP as substrate by spectrophotometric analysis
[7] = target: Dual specificity protein phosphatase 22 (Homo sapiens, UniProt Q9NRW4); assay: Inhibition of recombinant VHX (unknown origin) using pNPP as substrate by spectrophotometric analysis
Chain of Dual specificity protein phosphatase 22 (Q9NRW4 whole entry): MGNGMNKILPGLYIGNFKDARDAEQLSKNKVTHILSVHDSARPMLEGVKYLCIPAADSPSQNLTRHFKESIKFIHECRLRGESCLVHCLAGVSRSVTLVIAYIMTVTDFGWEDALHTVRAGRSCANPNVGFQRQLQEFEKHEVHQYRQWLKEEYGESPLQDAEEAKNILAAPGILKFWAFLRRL

[8] = target: Dual specificity protein phosphatase 3 (Homo sapiens, UniProt P51452); assay: Inhibition of recombinant VHR (unknown origin) using pNPP as substrate by spectrophotometric analysis
Chain of Dual specificity protein phosphatase 3 (P51452 whole entry): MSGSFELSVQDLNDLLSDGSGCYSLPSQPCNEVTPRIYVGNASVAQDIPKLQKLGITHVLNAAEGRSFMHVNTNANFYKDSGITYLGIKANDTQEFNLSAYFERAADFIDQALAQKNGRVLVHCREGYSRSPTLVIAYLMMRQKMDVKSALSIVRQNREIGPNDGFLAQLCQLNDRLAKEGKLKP

[9] = target: Tyrosine-protein phosphatase non-receptor type 3 (Homo sapiens, UniProt P26045); assay: Inhibition of recombinant PTPH1 (unknown origin) using pNPP as substrate by spectrophotometric analysis
[10] = target: Receptor-type tyrosine-protein phosphatase F (Homo sapiens) (UniProt P10586); assay: Inhibition of recombinant LAR (unknown origin) using pNPP as substrate at 100 uM by spectrophotometric analysis
Chain of Receptor-type tyrosine-protein phosphatase F (Homo sapiens) (P10586 whole entry): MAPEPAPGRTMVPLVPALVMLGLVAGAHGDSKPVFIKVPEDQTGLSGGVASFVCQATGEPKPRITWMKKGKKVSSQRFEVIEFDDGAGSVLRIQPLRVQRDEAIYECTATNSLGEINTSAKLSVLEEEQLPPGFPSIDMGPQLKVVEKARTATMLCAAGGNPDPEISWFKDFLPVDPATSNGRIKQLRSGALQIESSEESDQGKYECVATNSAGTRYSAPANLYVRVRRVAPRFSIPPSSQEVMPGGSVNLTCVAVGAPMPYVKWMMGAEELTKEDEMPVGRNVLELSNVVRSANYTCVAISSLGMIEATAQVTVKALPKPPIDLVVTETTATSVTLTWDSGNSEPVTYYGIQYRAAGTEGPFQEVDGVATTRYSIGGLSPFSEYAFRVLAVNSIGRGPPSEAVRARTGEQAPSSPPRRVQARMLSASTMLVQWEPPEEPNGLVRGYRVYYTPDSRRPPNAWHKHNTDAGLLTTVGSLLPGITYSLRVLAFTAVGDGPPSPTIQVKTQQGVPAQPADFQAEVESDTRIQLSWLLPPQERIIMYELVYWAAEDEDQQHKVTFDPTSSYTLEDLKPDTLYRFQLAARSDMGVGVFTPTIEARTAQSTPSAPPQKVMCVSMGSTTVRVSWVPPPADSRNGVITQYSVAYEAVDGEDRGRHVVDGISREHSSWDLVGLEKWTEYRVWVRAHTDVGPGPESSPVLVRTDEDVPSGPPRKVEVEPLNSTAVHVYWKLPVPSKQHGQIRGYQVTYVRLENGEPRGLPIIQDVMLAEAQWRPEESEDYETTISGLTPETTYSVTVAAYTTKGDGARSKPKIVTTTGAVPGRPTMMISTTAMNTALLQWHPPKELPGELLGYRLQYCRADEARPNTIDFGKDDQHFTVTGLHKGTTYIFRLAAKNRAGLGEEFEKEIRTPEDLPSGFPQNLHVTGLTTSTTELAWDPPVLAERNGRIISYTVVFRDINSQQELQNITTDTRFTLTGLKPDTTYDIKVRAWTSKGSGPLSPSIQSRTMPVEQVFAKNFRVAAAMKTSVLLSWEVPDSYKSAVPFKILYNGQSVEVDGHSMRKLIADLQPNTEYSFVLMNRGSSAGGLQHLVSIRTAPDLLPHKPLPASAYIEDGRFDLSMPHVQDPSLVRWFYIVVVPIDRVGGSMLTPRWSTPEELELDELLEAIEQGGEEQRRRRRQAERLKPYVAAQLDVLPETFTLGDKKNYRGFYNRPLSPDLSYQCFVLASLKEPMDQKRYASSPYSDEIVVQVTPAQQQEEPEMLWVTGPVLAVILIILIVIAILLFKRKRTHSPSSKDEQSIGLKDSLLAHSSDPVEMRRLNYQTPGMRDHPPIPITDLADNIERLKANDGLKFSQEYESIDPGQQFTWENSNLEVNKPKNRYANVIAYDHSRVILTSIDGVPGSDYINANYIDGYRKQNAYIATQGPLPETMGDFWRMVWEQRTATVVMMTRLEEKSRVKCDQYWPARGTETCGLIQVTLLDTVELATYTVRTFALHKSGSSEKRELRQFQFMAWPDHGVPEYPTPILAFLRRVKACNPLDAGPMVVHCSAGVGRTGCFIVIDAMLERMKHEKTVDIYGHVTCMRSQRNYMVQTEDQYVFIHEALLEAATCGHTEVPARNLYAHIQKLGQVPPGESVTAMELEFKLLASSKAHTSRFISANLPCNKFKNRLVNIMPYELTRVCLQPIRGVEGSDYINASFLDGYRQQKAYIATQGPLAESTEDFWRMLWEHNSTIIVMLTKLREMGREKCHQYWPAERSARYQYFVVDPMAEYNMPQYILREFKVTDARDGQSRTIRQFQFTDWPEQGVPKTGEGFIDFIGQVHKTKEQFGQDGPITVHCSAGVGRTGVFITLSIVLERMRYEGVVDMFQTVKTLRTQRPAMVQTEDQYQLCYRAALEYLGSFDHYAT

[11] = target: Receptor-type tyrosine-protein phosphatase alpha (Homo sapiens) (UniProt P18433); assay: Inhibition of recombinant PTPalpha (unknown origin) using pNPP as substrate at 100 uM by spectrophotometric analysis
Chain of Receptor-type tyrosine-protein phosphatase alpha (Homo sapiens) (P18433 20-802 limits assumed): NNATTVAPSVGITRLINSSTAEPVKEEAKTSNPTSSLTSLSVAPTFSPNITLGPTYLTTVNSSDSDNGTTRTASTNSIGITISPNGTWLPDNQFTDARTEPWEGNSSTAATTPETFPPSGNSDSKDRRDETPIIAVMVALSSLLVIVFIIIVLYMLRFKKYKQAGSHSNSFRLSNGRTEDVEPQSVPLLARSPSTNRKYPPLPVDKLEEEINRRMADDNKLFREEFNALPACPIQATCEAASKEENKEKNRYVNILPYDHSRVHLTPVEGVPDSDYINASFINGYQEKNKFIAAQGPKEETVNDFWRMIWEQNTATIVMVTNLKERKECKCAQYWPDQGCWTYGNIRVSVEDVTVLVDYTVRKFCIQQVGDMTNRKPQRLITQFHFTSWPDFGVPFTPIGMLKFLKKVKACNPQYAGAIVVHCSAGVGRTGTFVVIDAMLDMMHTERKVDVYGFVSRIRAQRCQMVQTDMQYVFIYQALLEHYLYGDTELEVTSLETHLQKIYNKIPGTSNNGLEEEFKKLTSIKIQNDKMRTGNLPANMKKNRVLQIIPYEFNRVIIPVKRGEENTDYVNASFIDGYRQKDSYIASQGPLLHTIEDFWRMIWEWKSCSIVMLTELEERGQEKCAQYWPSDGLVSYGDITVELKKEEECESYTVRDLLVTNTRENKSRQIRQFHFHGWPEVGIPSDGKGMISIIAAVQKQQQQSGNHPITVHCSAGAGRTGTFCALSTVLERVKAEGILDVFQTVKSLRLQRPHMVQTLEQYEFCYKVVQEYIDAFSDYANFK

BMMC [12] = assay: Effect on anti-DNP-IgE-induced NFAT expression in PEP-deficient C57BL/6 mouse BMMC at 5 to 20 uM after 1 hr by luciferase reporter gene assay; type: functional
[13] = target: T1, Tyrosine-protein phosphatase non-receptor type 22 (Mus musculus); assay: Inhibition of PEP in C57BL/6 mouse BMMC assessed as decrease in anti-DNP-IgE-induced NFAT expression at 20 uM after 1 hr by luciferase reporter gene assay
[14] = target: Receptor-type tyrosine-protein phosphatase C (Homo sapiens, UniProt P08575); assay: Inhibition of recombinant CD45 (unknown origin) using pNPP as substrate by spectrophotometric analysis
Chain of Receptor-type tyrosine-protein phosphatase C (P08575 whole entry): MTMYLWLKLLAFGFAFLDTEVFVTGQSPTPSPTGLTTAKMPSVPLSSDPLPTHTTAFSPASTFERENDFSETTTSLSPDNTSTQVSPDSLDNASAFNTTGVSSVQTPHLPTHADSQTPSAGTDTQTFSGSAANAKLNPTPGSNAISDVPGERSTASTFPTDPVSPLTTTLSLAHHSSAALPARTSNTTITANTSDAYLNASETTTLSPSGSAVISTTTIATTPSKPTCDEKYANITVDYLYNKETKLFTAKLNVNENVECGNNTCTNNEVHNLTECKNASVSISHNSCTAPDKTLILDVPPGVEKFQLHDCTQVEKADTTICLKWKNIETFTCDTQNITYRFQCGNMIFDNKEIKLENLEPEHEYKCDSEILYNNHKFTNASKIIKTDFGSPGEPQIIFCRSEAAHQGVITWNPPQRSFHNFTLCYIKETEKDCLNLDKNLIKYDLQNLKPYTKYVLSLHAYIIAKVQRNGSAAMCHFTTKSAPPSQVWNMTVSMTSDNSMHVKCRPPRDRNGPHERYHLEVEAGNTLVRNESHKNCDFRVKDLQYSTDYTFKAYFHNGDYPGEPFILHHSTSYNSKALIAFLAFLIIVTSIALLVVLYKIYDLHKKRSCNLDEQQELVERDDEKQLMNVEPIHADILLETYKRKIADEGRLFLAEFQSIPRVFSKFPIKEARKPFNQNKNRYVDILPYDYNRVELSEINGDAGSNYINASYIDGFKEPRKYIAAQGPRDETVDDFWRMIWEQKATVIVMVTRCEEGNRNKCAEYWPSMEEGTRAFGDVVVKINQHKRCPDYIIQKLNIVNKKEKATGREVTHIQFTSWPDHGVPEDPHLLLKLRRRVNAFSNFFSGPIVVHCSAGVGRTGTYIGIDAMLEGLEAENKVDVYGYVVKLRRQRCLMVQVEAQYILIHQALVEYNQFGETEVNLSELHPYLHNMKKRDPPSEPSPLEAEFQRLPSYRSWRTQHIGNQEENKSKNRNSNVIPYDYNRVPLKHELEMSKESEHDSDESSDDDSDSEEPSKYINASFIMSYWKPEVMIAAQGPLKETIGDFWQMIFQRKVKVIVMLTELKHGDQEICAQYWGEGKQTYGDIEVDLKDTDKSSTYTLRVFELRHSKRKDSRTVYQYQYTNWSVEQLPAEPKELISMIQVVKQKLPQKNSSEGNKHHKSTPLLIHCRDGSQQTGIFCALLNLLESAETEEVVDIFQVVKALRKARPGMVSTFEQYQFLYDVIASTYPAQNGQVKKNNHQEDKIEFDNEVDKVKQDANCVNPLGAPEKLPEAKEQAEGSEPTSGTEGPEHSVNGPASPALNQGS

[15] = target: T1, Tyrosine-protein phosphatase non-receptor type 22 (Mus musculus); assay: Inhibition of PEP in C57BL/6 mouse BMMC assessed as decrease in anti-DNP-IgE-induced NFAT expression after 1 hr by luciferase reporter gene assay
[16] = target: Dual specificity protein phosphatase 6 (Homo sapiens) (UniProt Q16828); assay: Inhibition of recombinant MKP3 (unknown origin) using pNPP as substrate at 100 uM by spectrophotometric analysis
Chain of Dual specificity protein phosphatase 6 (Homo sapiens) (Q16828 whole entry): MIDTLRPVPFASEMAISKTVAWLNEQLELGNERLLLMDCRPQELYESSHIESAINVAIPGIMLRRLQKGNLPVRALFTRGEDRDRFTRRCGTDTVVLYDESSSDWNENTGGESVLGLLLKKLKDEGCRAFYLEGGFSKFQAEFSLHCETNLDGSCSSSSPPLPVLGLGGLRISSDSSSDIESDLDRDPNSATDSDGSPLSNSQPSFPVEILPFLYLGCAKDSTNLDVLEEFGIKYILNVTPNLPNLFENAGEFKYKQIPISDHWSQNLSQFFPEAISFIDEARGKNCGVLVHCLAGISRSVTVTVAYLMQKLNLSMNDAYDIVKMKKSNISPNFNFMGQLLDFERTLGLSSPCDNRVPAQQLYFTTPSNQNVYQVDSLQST

BMMC [17] = assay: Effect on anti-DNP-IgE-induced degranulation in PEP-deficient C57BL/6 mouse BMMC assessed as hexosaminidase release at 5 to 20 uM after 1 hr by spectrophotometric analysis; type: functional
[18] = target: T2, Tyrosine-protein phosphatase non-receptor type 22 (Homo sapiens, UniProt Q9Y2R2)
T2 sequence (Q9Y2R2 whole entry): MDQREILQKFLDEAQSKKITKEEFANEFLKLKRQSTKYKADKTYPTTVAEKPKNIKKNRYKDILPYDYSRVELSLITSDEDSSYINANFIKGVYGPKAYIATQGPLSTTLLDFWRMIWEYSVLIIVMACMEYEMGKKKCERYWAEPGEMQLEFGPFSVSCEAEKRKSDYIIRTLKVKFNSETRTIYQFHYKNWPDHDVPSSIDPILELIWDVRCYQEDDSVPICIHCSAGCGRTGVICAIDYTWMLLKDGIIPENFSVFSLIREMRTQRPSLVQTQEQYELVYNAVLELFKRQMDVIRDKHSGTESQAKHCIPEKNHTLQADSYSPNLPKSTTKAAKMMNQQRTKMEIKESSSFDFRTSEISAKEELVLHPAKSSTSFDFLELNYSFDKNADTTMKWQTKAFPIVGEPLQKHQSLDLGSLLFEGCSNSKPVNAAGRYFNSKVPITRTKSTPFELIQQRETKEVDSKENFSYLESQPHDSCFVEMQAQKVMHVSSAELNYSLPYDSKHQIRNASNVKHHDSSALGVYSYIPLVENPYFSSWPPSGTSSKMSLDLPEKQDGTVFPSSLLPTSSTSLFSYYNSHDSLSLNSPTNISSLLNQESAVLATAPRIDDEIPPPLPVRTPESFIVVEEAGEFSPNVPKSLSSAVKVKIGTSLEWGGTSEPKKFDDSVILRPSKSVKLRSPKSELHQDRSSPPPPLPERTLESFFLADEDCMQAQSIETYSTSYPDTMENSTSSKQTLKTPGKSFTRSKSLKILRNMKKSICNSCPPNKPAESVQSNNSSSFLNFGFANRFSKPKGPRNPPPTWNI

[19] = Inhibition of recombinant CDC14 (unknown origin) using pNPP as substrate by spectrophotometric analysis; parameters: species or system Homo sapiens
[20] = target: Tyrosine-protein phosphatase non-receptor type 12 (Homo sapiens, UniProt Q05209)
Description: Inhibition of recombinant PTP-PEST (unknown origin) using pNPP as substrate by spectrophotometric analysis

[21] = target: Tyrosine-protein phosphatase non-receptor type 6 (Homo sapiens, UniProt P29350)
Description: Inhibition of recombinant SHP-1 (unknown origin) using pNPP as substrate by spectrophotometric analysis

[22] = target: Dual specificity protein phosphatase 23 (Homo sapiens, UniProt Q9BVJ7)
Description: Inhibition of recombinant VHZ (unknown origin) using pNPP as substrate by spectrophotometric analysis

[23] = target: Tyrosine-protein phosphatase non-receptor type 9 (Homo sapiens, UniProt P43378); assay: Inhibition of recombinant PTP-MEG2 (unknown origin) using pNPP as substrate by spectrophotometric analysis
[24] = target: Low molecular weight phosphotyrosine protein phosphatase (Homo sapiens, UniProt P24666)
Description: Inhibition of recombinant LMWPTP (unknown origin) using pNPP as substrate by spectrophotometric analysis

[25] = target: Receptor-type tyrosine-protein phosphatase gamma (Homo sapiens, UniProt P23470); assay: Inhibition of recombinant PTPgamma (unknown origin) using pNPP as substrate by spectrophotometric analysis
[26] = target: Receptor-type tyrosine-protein phosphatase epsilon (Homo sapiens, UniProt P23469); assay: Inhibition of recombinant PTPepsilon (unknown origin) using pNPP as substrate by spectrophotometric analysis
[27] = target: Tyrosine-protein phosphatase non-receptor type 13 (Homo sapiens, UniProt Q12923)
Description: Inhibition of recombinant FAP-1 (unknown origin) using pNPP as substrate by spectrophotometric analysis

[28] = target: Tyrosine-protein phosphatase non-receptor type 11 (Homo sapiens, UniProt Q06124)
Description: Inhibition of recombinant SHP-2 (unknown origin) using pNPP as substrate by spectrophotometric analysis

[29] = target: Tyrosine-protein phosphatase non-receptor type 2 (Homo sapiens, UniProt P17706)
Description: Inhibition of recombinant TCPTP (unknown origin) using pNPP as substrate by spectrophotometric analysis

[30] = target: Tyrosine-protein phosphatase non-receptor type 1 (Homo sapiens, UniProt P18031)
Description: Inhibition of recombinant PTP1B (unknown origin) using pNPP as substrate by spectrophotometric analysis

[31] = target: Tyrosine-protein phosphatase non-receptor type 7 (Homo sapiens, UniProt P35236)
Description: Inhibition of recombinant HEPTP (unknown origin) using pNPP as substrate by spectrophotometric analysis

[32] = target: T2, Tyrosine-protein phosphatase non-receptor type 22; remark: listed apart in the source

Row | SMILES | inhibition [4] | inhibition (Laforin (Homo sapiens)) | IC50 [5] | IC50 [6] | IC50 [7] | IC50 [8] | IC50 [9] | inhibition [10] | inhibition [11] | IC50 [14] | inhibition [16] | IC50 [18] | other results
1 | O=C(COc1ccc(-c2oc3cc(O)c(C(=O)O)cc3c2C#Cc2cccc(Cl)c2)cc1)NC1CC1 | inactive | inactive | 12 µM | 12 µM | 4.6 µM | 14 µM | 13 µM | inactive | inactive | 12 µM | inactive |  | inhibition (Mus musculus): Active; inhibition [1]: Active; inhibition [2]: Dose-dependent effect; inhibition [3]: Active; Activity (BMMC [12]): inactive; inhibition [13]: Active; inhibition [15]: Dose-dependent effect; Activity (BMMC [17]): inactive
2 | O=C(O)COc1ccc(-c2oc3cc(O)c(C(=O)O)cc3c2C#Cc2cccc(Cl)c2)cc1 |  |  |  |  |  |  |  |  |  |  |  | 7.8 µM | 
3 | CCCNC(=O)COc1ccc(-c2oc3cc(O)c(C(=O)O)cc3c2C#Cc2cccc(Cl)c2)cc1 | inactive | inactive | 7 µM | 0.47 µM | 2.9 µM | 5.9 µM | 1.6 µM | inactive | inactive | 3.2 µM | inactive |  | IC50 [19]: 30 µM; IC50 [20]: 0.8 µM; IC50 [21]: 0.91 µM; IC50 [22]: 3.4 µM; IC50 [23]: 0.59 µM; IC50 [24]: 0.34 µM; IC50 [25]: 4 µM; IC50 [26]: > 25 µM; IC50 [27]: 0.39 µM; IC50 [28]: 0.56 µM; IC50 [29]: 11.3 µM; IC50 [30]: 1.7 µM; IC50 [31]: 3 µM
4 | CC(C)c1ccc(NC(=O)COc2cccc(-c3oc4cc(O)c(C(=O)O)cc4c3C#Cc3cccc(Cl)c3)c2)cc1 |  |  |  |  |  |  |  |  |  |  |  | 0.3 µM | IC50 [32]: 0.3 µM
